Laboratory results from patent US20210046063A1 (University of Kentucky Research Foundation, priority 2019, published 2021).
Entries after “also recorded” stand apart in the source; their conditions may differ.

Assays:
[1] = tested on: lung cancer cell lines (A549/EML4-ALK, A549, A549TR, H1299, KP-7B); experiment: Apoptosis of lung cancer cells (ICC for active caspase-3, scored by confocal microscopy); type: cell-based; conditions: 24 h
Description: Lung cancer cells treated with vehicle, CQ (100 nM), CZT (25 μM), and a combination of CZT (1 μM) and CQ (25 nM) for 24 h.

[2] = tested on: LLC1 cells; experiment: LLC1-derived lung tumor nodules in mice; type: in vivo; conditions: FIG. 2
Description: Mice were injected i.v. with LLC1 cells, and 24 h later injected i.p. with CQ (25 mg/kg body weight), CZT (10 mg/kg body weight), CQ+CZT (25 and 10 mg/kg, resp.) or vehicle once every day for 5 consecutive days. After 28 days, the lungs were scored for tumor nodules. *P<0.01 by Anova test.

[3] = tested on: Par-4 secretion; conditions: cited from earlier work
[4] = tested on: Par-4; conditions: cancer patients, Phase 1 clinical trials; cited from earlier work
[5] = tested on: GRP78 on lung cancer cell surface; experiment: Analysis for GRP78 at the cell surface of lung cancer cells; type: cell-based; conditions: CZT (1 μM), 24 h, FIG. 1B
Description: Analysis for GRP78 at the cell surface. Mean+SD shown. *P<0.01 by Anova or Student's t test. P>0.05 by Anova.
A lack of cell surface […] expression may prevent secreted Par-4 from inducing apoptosis in cancer cells.

In the case of `CCN(CC)CCCC(C)Nc1ccnc2cc(Cl)ccc12` (stereo not drawn) [CQ, Chloroquine], the “apoptosis, CQ in conjunction with CZT added directly to cancer cells” value ([1]; combination of CZT (1 μM) and CQ (25 nM), P>0.05, FIG. 1C) is given as “did not induce apoptosis”, the “inhibition of lung tumor nodules by CQ in the presence of CZT, relative to CZT or CQ administered separately” value ([2]; LLC1-derived nodules in mice, CQ 25 mg/kg + CZT 10 mg/kg i.p.) is given as “significantly greater inhibition” and the “Par-4 secretion from lung cancer cells” value ([3]; lung cancer cells) is given as “did not show secretion of Par-4”. For the same molecule, the “Par-4 secretion from normal cells” value ([3]; normal cells, cell culture and mice) was “increased Par-4 secretion from normal cells”.

For `CCN(CCO)CCCC(C)Nc1ccnc2cc(Cl)ccc12` (stereo not drawn) [HCQ, hydroxychloroquine], the “Par-4 levels in plasma” value [4] is listed as “elevated Par-4 levels in the plasma” and the “apoptosis in patients' tumors” value [4] is listed as “induced apoptosis in their tumors”.

For `C[C@@H](Oc1cc(-c2cnn(C3CCNCC3)c2)cnc1N)c1c(Cl)ccc(F)c1Cl` [CZT, Crizotinib], the “inhibition of lung tumor growth (lung tumor nodules)” value ([2]; LLC1 cells i.v., i.p. CQ 25 mg/kg, CZT 10 mg/kg, once daily for 5 days, lungs scored after 28 days) was “significant inhibition of lung tumor growth; also recorded: showed an effect” and the “GRP78 expression at the cell surface” value [5] was “upregulates GRP78 expression on the surface of lung cancer cells; also recorded: elevation of Par-4 receptor GRP78 on lung tumor cell surface”.

B1: recombinant Par-4: recombinant tumor suppressor Prostate Apoptosis Response-4 protein, binds receptor GRP78 (protein, UniProt Q96IZ0 1-340, looked up)
PRKC apoptosis WT1 regulator …: MATGGYRTSSGLGGSTTDFLEEWKAKREKMRAKQNPPGPAPPGGGSSDAAGKPPAGALGTPAAAAANELNNNLPGGAPAAPAVPGPGGVNCAVGSAMLTRAAPGPRRSEDEPPAASASAAPPPQRDEEEPDGVPEKGKSSGPSARKGKGQIEKRKLREKRRSTGVVNIPAAECLDEYEDDEAGQKERKREDAITQQNTIQNEAVNLLDPGSSYLLQEPPRTVSGRYKSTTSVSEEDVSSRYSRTDRSGFPRYNRDANVSGTLVSSSTLEKKIEDLEKEVVRERQENLRLVRLMQDKEEMIGKLKEEIDLLNRDLDDIEDENEQLKQENKTLLKVVGQLTR
For B1, the “apoptosis (active caspase-3 positive cells), CZT together with recombinant Par-4” value ([1]; CZT (1 μM) + recombinant Par-4 (100 nM), A549/EML4-ALK, A549, A549TR, H1299, KP-7B cells, FIG. 1A) was “increased apoptosis”.
